In publication PMC10892409, “Exploring Ocimum basilicum’s Secondary Metabolites: Inhibition and Molecular Docking against Rhynchophorus ferrugineus for Optimal Action” (Plants, 2024):
≈ marks a conversion by molar mass, not a printed value. Where “and” joins values, the source holds several entries; their conditions need not be identical. Equal values may be shown once. Read-outs that look alike come from different tables or passages of the source.

Key:
[1] = molecular target: T1, GABA-T (Rhynchophorus ferrugineus, UniProt A0A834I2E4); experiment: In vitro GABA-T inhibition, larval homogenate; format: biochemical; conditions: fourth-instar larvae preparation, listed as salvianolic acid B
Experimental: The R. ferrugineus were homogenized larvae in a buffer (sodium phosphate, 40 mM, and pH 7.4); then, sodium chloride (10 mM dissolved in 1% (w/v) triton X-100) was added. During centrifugation (Sigma 3–30 KS), the homogenate was chilled to 4 °C and spun at a speed of 5000 rpm (20 min). The supernatant was either immediately put into action for an enzymatic test or frozen and kept at 20 °C for later use. […] The protein content was determined using the same protocol employed by Lowry with modification [93] using protein extract (100 µL) combined with an alkaline copper solution and a Folin–Ciocalteu phenol reagent (2 mL and 200 µL, respectively). The intensity of the resulting blue hue was evaluated during 30 min of incubation at 25 °C. Using an ELISA plate reader and a BSA standard curve, we could calculate the protein concentration by analyzing the absorbance at 600 nm (Multiskan SkyHigh Microplate Spectrophotometer, Thermo Fisher Scientific, Waltham, MA, USA).
The GABA-T activity was assessed with a modified version of the method published by [96]. The enzyme crude extract (25 μL) added to a solution included Tris-HCl, α-ketoglutarate, 2-mercaptoethanol, β-NAD, and GABA (50, 2, 20, and 3, respectively) at a volume of 1525 μL. […]

[2] = system: AChE; experiment: In vivo AChE inhibition in treated fourth-instar larvae; parameters: species or system Rhynchophorus ferrugineus; conditions: fourth-instar larvae treated 24 h
Experimental: (§1) The enzyme AChE was assessed using a substrate of acetylthiocholine iodide and evaluated using 5,5′-dithiobis [2-nitrbenzoic acid] (DTNB), according to [94]. Each well contained a sodium phosphate buffer (140 µL) (pH: 8.0; 100 mM), DTNB (10 µL), extract (20 µL)/components at 1, 10, 50, 100, and 1000 µg/mL in DMSO and underwent 15 min of incubation at 25 °C. Acetylthiocholine (ATCh) was added to start the reaction (10 µL). The ATCh enzymatic hydrolysis produced a 5-thio-2-nitrobenzoate anion as a color (yellow) that was detected by measuring its wavelength, i.e., 412 nm, thereby allowing the researchers to track the rate of ATCh hydrolysis (15 min). Each response was performed three times on a microplate and examined using an ELISA plate reader to determine the 412 nm absorbance of the combination (Multiskan SkyHigh Microplate Spectrophotometer). The AChE-specific activity was measured as OD412/mg protein.h. based on observing the effect of raising the quantities of all of these compounds during the tests on the inhibition results, and the inhibitory concentration (IC50) was calculated. Then, a computer algorithm was used to determine the IC50 values (Version 9.01 of GraphPad Prism by Inc., 2020, San Diego, CA, USA).
(§2) Each enzyme’s in vivo impact was measured after treating larvae with an extract or pure chemicals. An inhibitor-free test combination served as a negative control. We determined the absorbance of the enzymes throughout a spectrum of wavelengths using a rapid reader for ELISA plates (Multiskan SkyHigh Microplate Spectrophotometer). Extracts and pure chemicals were used to treat R. ferrugineus larvae at previous serial concentrations, and their AChE, ACP, ALP, and GABA-T activity was tested in vivo using the methods outlined above. Larvae spent a day on leaf disks treated with chemicals or extract.

[3] = system: R. ferrugineus adults; experiment: Antifeedant/insecticidal test on adults with treated sugarcane stem (probit LC50); format: in vivo, Rhynchophorus ferrugineus; conditions: after 1 day of treatment, 95% confidence limits in brackets
Experimental: (§3) Over the course of 40 days, an O. basilicum cell suspension was cultivated in this investigation, and then the extract was obtained. […] Long segments of sugarcane stem were employed in the insect breeding lab at King Faisal University’s Research and Training Center to raise adult R. ferrugineus larvae. For this experiment, we used a topical application technique with larvae stored at 4 °C for five minutes to test the extract’s activity. Using a hand-operated micro-applicator (Burkard Manufacturing Co., Ltd., Hertfordshire, UK, collected using a […] micro-syringe), extracts at escalating ratios (10 µL) were injected into the dorsal surface of the larvae (Ito Corp.; MS-N50, Shizuoka, Japan). Five larvae per box in a series of three replicates were fed on sugarcane stem pieces measuring 10 cm in length. The LD50 was calculated by measuring the percentage of dead larvae at 24, 48, 72, and 96 h following a topical application. The antifeedant impact was determined in adults by giving them 10 cm sugarcane stem segments cut in half longitudinally. Long strips of sugarcane stem (32 cm^2) were immersed in the previous serial extract and compound concentration (10 mL) for ten seconds before they were dried in ambient air using a plastic box. Each box included a new pair of larvae (a male and a female). Ten sets of each treatment were performed. Data on how well the subjects ate were evaluated at 24, 48, 72, and 96 h.
(§4) The tissue culture parameters were calculated quantitatively from three independent sets of samples, and the mean SD was used to describe the findings. Toxicity parameters were determined quantitatively using a 10-replicate sample, and means and standard deviations were used to present the data. The median dosage obtained from a dose–response regression was used to calculate the LC50 value. By analyzing the comparative growth rate vs. the crude extract logarithm using least squares regression, the range of LC50 was calculated with 95% confidence. A simple variance study was performed on the increased weight and enzymatic activity data (ANOVA). The distinction between the means was accomplished using the Student–Newman–Keuls (SNK) test. Additionally, SPSS version 25 was used to find p < 0.05 significant deviations from the mean.

[4] = molecular target: T1, GABA-T; experiment: In vivo GABA-T inhibition in treated fourth-instar larvae; conditions: fourth-instar larvae treated 24 h
Experimental: The enzyme crude extract (25 μL) added to a solution included Tris-HCl, α-ketoglutarate, 2-mercaptoethanol, β-NAD, and GABA (50, 2, 20, and 3, respectively) at a volume of 1525 μL. Finally, 30 μL of tritonx100 ((1%, (v/v)) was added to the prior combination. We used 30 min of incubation at between 25 and 30 °C. Additionally, we used an ELISA plate reader to determine the absorbance of the combination at 340 nm (Multiskan SkyHigh Microplate Spectrophotometer). Specific activities of GABA-T were measured as OD 340/mg of protein·h.

[5] = system: ACPs; experiment: In vitro ACP inhibition, larval homogenate; format: biochemical, Rhynchophorus ferrugineus; conditions: fourth-instar larvae preparation
Experimental: (§5) The R. ferrugineus were homogenized larvae in a buffer (sodium phosphate, 40 mM, and pH 7.4); then, sodium chloride (10 mM dissolved in 1% (w/v) triton X-100) was added. During centrifugation (Sigma 3–30 KS), the homogenate was chilled to 4 °C and spun at a speed of 5000 rpm (20 min). The supernatant was either immediately put into action for an enzymatic test or frozen and kept at […] for later use. Each test was repeated three times. The protein content was determined using the same protocol employed by Lowry with modification using protein extract (100 µL) combined with an alkaline copper solution and a Folin–Ciocalteu phenol reagent (2 mL and 200 µL, respectively). The intensity of the resulting blue hue was evaluated during 30 min of incubation at 25 °C. Using an ELISA plate reader and a BSA standard curve, we could calculate the protein concentration by analyzing the absorbance at 600 nm (Multiskan SkyHigh Microplate Spectrophotometer, Thermo Fisher Scientific, Waltham, MA, USA).
(§6) Activities of ACPs and ALPs were evaluated using a modified version of the Asakura technique. The ACP test required incubating 100 μL of crude enzyme in a buffer of 650 μL of sodium acetate (pH: 5.0; 50 mM with ACPs) or 250 μL of Tris–HCl (at 50 mM; pH: 8.0 with ALPs) and p-nitrophenyl phosphate (5.5 mM). For 30 min; the various mixes were kept at 37 °C for incubation. Thereafter, 500 μL of NaOH (0.5 N) stopped the reaction. Using an ELISA plate reader, we determined the mixture’s 415 nm absorbance value (Multiskan SkyHigh Microplate Spectrophotometer). The ACP- and ALP-specific activity was estimated as OD 415/mg protein·h.

[6] = system: fourth-instar larvae of R. ferrugineus; experiment: Topical application (contact) to fourth-instar larvae (probit LD50); format: in vivo, Rhynchophorus ferrugineus; conditions: after 1 day of treatment, 95% confidence limits in brackets
Experimental: as §3, §4

[7] = system: ACPs; experiment: In vivo ACP inhibition in treated fourth-instar larvae; parameters: species or system Rhynchophorus ferrugineus; conditions: fourth-instar larvae treated 24 h
Experimental: as §6, §2

[8] = system: ALPs; experiment: In vitro ALP inhibition, larval homogenate; format: biochemical, Rhynchophorus ferrugineus; conditions: for IC50 ALPs in vitro: fourth-instar larvae preparation
Experimental: as §5, §6

[9] = system: ALPs; experiment: In vivo ALP inhibition in treated fourth-instar larvae; parameters: species or system Rhynchophorus ferrugineus; conditions: fourth-instar larvae treated 24 h
Experimental: as §6, §2

[10] = system: AChE; experiment: In vitro AChE inhibition, larval homogenate (Ellman); format: biochemical, Rhynchophorus ferrugineus; conditions: fourth-instar larvae preparation
Experimental: as §5, §1

[11] = Rhynchophorus ferrugineus, 24 h, read-out: LC50

T1 sequence (A0A834I2E4 28-494): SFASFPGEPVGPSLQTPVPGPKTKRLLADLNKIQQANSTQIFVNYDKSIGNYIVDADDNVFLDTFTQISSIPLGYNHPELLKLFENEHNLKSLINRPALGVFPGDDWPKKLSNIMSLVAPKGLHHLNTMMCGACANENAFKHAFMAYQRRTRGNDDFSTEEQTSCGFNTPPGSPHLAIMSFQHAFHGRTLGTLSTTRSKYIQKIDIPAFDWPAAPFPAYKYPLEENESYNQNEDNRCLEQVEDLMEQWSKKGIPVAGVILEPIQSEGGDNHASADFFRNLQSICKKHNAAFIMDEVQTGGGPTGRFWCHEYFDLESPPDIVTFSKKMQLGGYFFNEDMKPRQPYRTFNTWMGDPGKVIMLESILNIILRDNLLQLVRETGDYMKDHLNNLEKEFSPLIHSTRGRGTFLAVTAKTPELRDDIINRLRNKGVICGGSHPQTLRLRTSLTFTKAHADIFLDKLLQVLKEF

Salvianolic acid B
IC50 GABA-T in vitro [1]: 197.2 µg/mL | IC50 AChE in vivo [2]: 229.7 µg/mL | LC50 [3]: 1195 (1121–1278) µg/mL | IC50 GABA-T in vivo [4]: 324.8 µg/mL | IC50 ACPs in vitro ([5]; listed as salvianolic acid B): 98.2 µg/mL | LD50 [6]: 11.1 (10.1–12.18) µg/Larvae | LD50 ([6]; listed as salvianolic acid B): 11.1 µg/Larvae | IC50 ACPs in vivo [7]: < 330 µg/mL and 182.3 µg/mL | IC50 ALP in vitro [8]: 105 µg/mL | IC50 ALPs in vitro ([8]; listed as salvianolic acid B): < 200 µg/mL | IC50 ALPs in vivo [9]: 194.6 µg/mL | IC50 AChE in vitro [10]: 117 ± 1.08 µg/mL | IC50 AChE in vitro ([10]; listed as salvianolic acid B): 116.7 µg/mL

COc1cc(/C=C/C(=O)O[C@@H](C(=O)O)[C@@H](O)C(=O)O)ccc1O [Fertaric acid]
IC50 AChE in vivo [2]: 385 ± 1.18 µg/mL | IC50 AChE in vivo ([2]; listed as fertaric acid): 384.7 µg/mL | LC50 [3, 11]: 1530 µg/mL (≈ 4680 µM) | IC50 ACPs in vitro ([5]; listed as fertaric acid): 133.5 µg/mL (≈ 409 µM) | LD50 [6]: 19.46 (18.23–20.76) µg/Larvae | LD50 ([6]; listed as fertaric acid): 19.46 µg/Larvae | IC50 ACPs in vivo ([7]; listed as fertaric acid): 349.4 µg/mL | IC50 ALP in vitro [8]: 137 µg/mL (≈ 421 µM) | IC50 ALPs in vitro ([8]; listed as fertaric acid): < 200 µg/mL | IC50 ALPs in vivo ([9]; listed as fertaric acid): 436.8 µg/mL | IC50 AChE in vitro [10]: 124 ± 1.18 µg/mL | IC50 AChE in vitro ([10]; listed as fertaric acid): 123.6 µg/mL

COc1ccc(-c2cc(=O)c3c(O)c(OC)c(OC)cc3o2)cc1 [Salvigenin]
IC50 AChE in vivo [2]: 258 ± 1.23 µg/mL | IC50 AChE in vivo ([2]; listed as salvigenin): 258.4 µg/mL | LC50 [3, 11]: 1140 µg/mL (≈ 3480 µM) | IC50 ACPs in vitro ([5]; listed as salvigenin): 151.2 µg/mL (≈ 461 µM) | LD50 [6]: 10.8 (10.2–11.5) µg/Larvae | LD50 ([6]; listed as salvigenin): 10.8 µg/Larvae | IC50 ACPs in vivo ([7]; listed as salvigenin): < 330 µg/mL and 294.2 µg/mL | IC50 ALP in vitro [8]: 123 µg/mL (≈ 374 µM) | IC50 ALPs in vitro ([8]; listed as salvigenin): < 200 µg/mL | IC50 ALPs in vivo ([9]; listed as salvigenin): 228.7 µg/mL | IC50 AChE in vitro [10]: 130 ± 1.23 µg/mL | IC50 AChE in vitro ([10]; listed as salvigenin): 129.7 µg/mL

O=C(/C=C/c1ccc(O)c(O)c1/C=C/c1ccc(O)c(O)c1)O[C@H](Cc1ccc(O)c(O)c1)C(=O)O [Salvianolic acid A]
IC50 AChE in vivo [2]: 178.2 µg/mL | LC50 [3, 11]: 1260 µg/mL (≈ 2550 µM) | IC50 ACPs in vitro ([5]; listed as salvianolic acid A): 112.2 µg/mL (≈ 227 µM) | LD50 [6]: 11.3 (10.2–12.47) µg/Larvae | LD50 ([6]; listed as salvianolic acid A): 11.3 µg/Larvae | IC50 ACPs in vivo [7]: < 330 µg/mL and 226.3 µg/mL | IC50 ALP in vitro [8]: 116 µg/mL (≈ 234 µM) | IC50 ALPs in vitro ([8]; listed as salvianolic acid A): < 200 µg/mL | IC50 ALPs in vivo [9]: 213.8 µg/mL | IC50 AChE in vitro [10]: 94 ± 0.94 µg/mL | IC50 AChE in vitro ([10]; listed as salvianolic acid A): 93.6 µg/mL

C[C@H]1[C@H](C)CC[C@]2(C(=O)O)CC[C@]3(C)C(=CC[C@@H]4[C@@]5(C)CC[C@H](O)C(C)(C)[C@@H]5CC[C@]43C)[C@H]12 [Ursolic acid]
IC50 AChE in vivo [2]: 458 ± 1.52 µg/mL | IC50 AChE in vivo ([2]; listed as ursolic acid): 457.8 µg/mL | LC50 [3, 11]: 1120 µg/mL (≈ 2450 µM) | IC50 ACPs in vitro ([5]; listed as ursolic acid): 167.8 µg/mL (≈ 367 µM) | LD50 [6]: 14.9 (13.6–15.4) µg/Larvae | LD50 ([6]; listed as ursolic acid): 14.9 µg/Larvae | IC50 ACPs in vivo ([7]; listed as ursolic acid): 392.4 µg/mL | IC50 ALP in vitro [8]: 141 µg/mL (≈ 309 µM) | IC50 ALPs in vitro ([8]; listed as ursolic acid): < 200 µg/mL | IC50 ALPs in vivo ([9]; listed as ursolic acid): 476.9 µg/mL | IC50 AChE in vitro [10]: 170 ± 1.52 µg/mL | IC50 AChE in vitro ([10]; listed as ursolic acid): 169.5 µg/mL
